Reference: BindingDB's records for doi:10.1016/j.ejmech.2021.113889 (China Pharmaceutical University, 2021)

Target: Glycogen synthase kinase-3 beta (Homo sapiens, UniProt P49841)
Test: Binding affinity to recombinant GSK3beta (unknown origin) assessed as dissociation rate constant upto 0.00975 uM by SPR analysis

Glycogen synthase kinase-3 beta, sequence (P49841 whole entry): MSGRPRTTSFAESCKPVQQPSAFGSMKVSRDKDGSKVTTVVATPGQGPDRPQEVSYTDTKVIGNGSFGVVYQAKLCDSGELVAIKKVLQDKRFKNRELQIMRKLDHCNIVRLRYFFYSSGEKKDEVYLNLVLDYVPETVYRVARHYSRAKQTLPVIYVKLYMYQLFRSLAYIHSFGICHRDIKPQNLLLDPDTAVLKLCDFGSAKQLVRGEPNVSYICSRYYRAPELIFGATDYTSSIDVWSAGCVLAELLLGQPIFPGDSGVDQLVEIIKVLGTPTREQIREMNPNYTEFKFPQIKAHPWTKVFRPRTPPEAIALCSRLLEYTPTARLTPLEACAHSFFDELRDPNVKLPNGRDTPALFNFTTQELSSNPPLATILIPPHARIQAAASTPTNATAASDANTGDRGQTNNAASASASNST

koff: 0.0253 s⁻¹
SMILES: Nc1ncc(-c2ccc(S(=O)(=O)N3CCN(CCCCc4cn(CCOCCOCCOCCOCCOCCNc5cccc6c5C(=O)N(C5CCC(=O)NC5=O)C6=O)nn4)CC3)cc2)nc1C(=O)Nc1cccnc1 (stereo unspecified)
